According to ChEMBL document CHEMBL1130763, “Nonpeptide glycoprotein IIb/IIIa inhibitors: substituted quinazolinediones and quinazolinones as potent fibrinogen receptor antagonists” (Bioorg Med Chem Lett, 1998):

Species on record: Homo sapiens
Assay: In vitro inhibition of platelet aggregation by measuring its effect on the ADP-stimulated aggregation of human platelets
Format: functional

| SMILES | IC50 [nM] |
| --- | --- |
| CCCCS(=O)(=O)NC(CCCc1ccc2c(c1)c(=O)n(CCC1CCNCC1)c(=O)n2C)C(=O)O (configuration not stated) | 140 |
| CCCCS(=O)(=O)NC(CCCc1ccc2c(c1)c(=O)n(CCC1CCNCC1)c(=O)n2Cc1ccccc1)C(=O)O (configuration not stated) | 160 |
| CCCCS(=O)(=O)NC(CNC(=O)c1ccc2[nH]c(=O)n(CCC3CCNCC3)c(=O)c2c1)C(=O)O (configuration not stated) | 210 |
| CCCCS(=O)(=O)NC(CC#Cc1ccc2c(c1)c(=O)n(CCC1CCNCC1)c(=O)n2Cc1ccncc1)C(=O)O (configuration not stated) | 74 |
| CCCCS(=O)(=O)NC(CCCc1ccc2c(c1)c(=O)n(CCC1CCNCC1)c(=O)n2Cc1ccncc1)C(=O)O (configuration not stated) | 100 |
| CCCCS(=O)(=O)NC(CCCc1ccc2[nH]c(=O)n(CCC3CCNCC3)c(=O)c2c1)C(=O)O (configuration not stated) | 160 |

These reach a lower IC50. Values come first.

| IC50 [nM] | SMILES |
| --- | --- |
| 43 | CCCCS(=O)(=O)NC(CC#Cc1ccc2nc(C)n(CCC3CCNCC3)c(=O)c2c1)C(=O)O (configuration not stated) |
| 37 | CCCCS(=O)(=O)NC(CC#Cc1ccc2[nH]c(=O)n(CCC3CCNCC3)c(=O)c2c1)C(=O)O (configuration not stated) |
| 67 | CCCCS(=O)(=O)NC(CC#Cc1ccc2c(c1)c(=O)n(CCC1CCNCC1)c(=O)n2C)C(=O)O (configuration not stated) |
| 61 | CCCCS(=O)(=O)NC(CC#Cc1ccc2c(c1)c(=O)n(CCC1CCNCC1)c(=O)n2Cc1ccccc1)C(=O)O (configuration not stated) |
| 15 | CCCCS(=O)(=O)N[C@@H](Cc1ccc(OCCCCC2CCNCC2)cc1)C(=O)O |
| 9 | CCCCS(=O)(=O)N[C@@H](CNC(=O)c1ccc2c(c1)C(=O)N(CCC1CCNCC1)C2)C(=O)O |
